From patent US9884832B2 (priority 2011, dated 2018)

Target: AM2 S31 (wild-type serine at position 31 in the M2 protein), influenza virus A/Udorn/72 (Influenza A virus, UniProt P0DOF5)
Assay: cell-based
Details: 100 uM; Xenopus oocytes; activity range class; read-out: S31 OOcyte Inhibition at 100 uM (%)

Sequence of AM2 S31 (wild-type serine at position 31 in the M2 protein), influenza virus A/Udorn/72 (P0DOF5 whole entry, looked up): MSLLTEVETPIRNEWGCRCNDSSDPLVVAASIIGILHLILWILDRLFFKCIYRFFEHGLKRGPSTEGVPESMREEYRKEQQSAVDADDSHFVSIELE

Q: How did the inhibition at 100 µM turn out when `c1csc(-c2ncc(CNC34CC5CC(CC(C5)C3)C4)cn2)c1` [Example 61a, N-((2-(thiophen-2-yl)pyrimidin-5-yl)methyl)adamantan-1-amine] was run?
A: 0 to 30%

Q: How did the inhibition at 100 µM turn out when `Cc1csc2sc(CNC34CC5CC(CC(C5)C3)C4)c(C)c12` [Example 176a] was run?
A: 0 to 30%

Q: How did the inhibition at 100 µM turn out when `FC(F)(F)c1ccc(CNC23CC4CC(CC(C4)C2)C3)cc1` [Example 5a, Adamantan-1-yl-(4-trifluoromethyl-benzyl)-amine] was run?
A: 0 to 30%

Q: Which inhibition at 100 µM does the source give for `C1CCC(c2nc(CNC34CC5CC(CC(C5)C3)C4)no2)C1` [Example 109a, N-((5-cyclopentyl-1,2,4-oxadiazol-3-yl)methyl)adamantan-1-amine] here?
A: 0 to 30%

Q: With `c1ccc(-c2noc(CNC34CC5CC(CC(C5)C3)C4)n2)cc1` [Example 123a, N-((3-phenyl-1,2,4-oxadiazol-5-yl)methyl)adamantan-1-amine] as the compound, how does the inhibition at 100 µM read?
A: 0 to 30%

Q: With `COc1ccc2nc(CN(Cc3nc4ccc(OC)cc4[nH]3)C34CC5CC(CC(C5)C3)C4)[nH]c2c1` [Example 201a, Adamantan-1-yl-bis-(6-methoxy-1H-benzoimidazol-2-ylmethyl)-amine] as the compound, how does the inhibition at 100 µM read?
A: 0 to 30%

Q: How did the inhibition at 100 µM turn out when `c1c(CNC23CC4CC(CC(C4)C2)C3)noc1C1CC1` [Example 107a, N-((5-cyclopropylisoxazol-3-yl)methyl)adamantan-1-amine] was run?
A: 0 to 30%

Q: `OC12CC3CC(C1)CC(NCc1cc(-c4ccccc4)on1)(C3)C2` [Example 194a, (1s,3r,5R,7S)-3-(((5-phenylisoxazol-3-yl)methyl)amino)adamantan-1-ol] was tested. Which inhibition at 100 µM did it give?
A: 0 to 30%

Q: For `Brc1ncc(CNC23CC4CC(CC(C4)C2)C3)cn1` [Example 57a, N-((2-bromopyrimidin-5-yl)methyl)adamantan-1-amine], which inhibition at 100 µM is on record?
A: 0 to 30%

Q: `c1csc(-c2ncc(CNC34CC5CC(CC(C5)C3)C4)s2)c1` [Example 144a, N-((2-(thiophen-2-yl)thiazol-5-yl)methyl)adamantan-1-amine] was tested. Which inhibition at 100 µM did it give?
A: 0 to 30%

Q: `c1ccc(-c2cc(CNC34CC5CC(CC(C5)C3)C4)no2)cc1` [Example 116a, N-((5-phenylisoxazol-3-yl)methyl)adamantan-1-amine] was tested. Which inhibition at 100 µM did it give?
A: 0 to 30%

Q: With `c1csc(-c2ccc(CNC34CC5CC(CC(C5)C3)C4)nc2)c1` [Example 55a, Adamantan-1-yl-(5-thiophen-2-yl-pyridin-2-ylmethyl)-amine] as the compound, how does the inhibition at 100 µM read?
A: 31 to 95%

Q: With `c1ccc(-c2nc(CNC34CC5CC(CC(C5)C3)C4)c[nH]2)cc1` [Example 114a, N-((2-phenyl-1H-imidazol-4-yl)methyl)adamantan-1-amine] as the compound, how does the inhibition at 100 µM read?
A: 31 to 95%

Q: With `CC(NC12CC3CC(CC(C3)C1)C2)c1ccc(C#N)s1` (stereo not shown) [Example 92a, 5-(1-(adamantan-1-ylamino)ethyl)thiophene-2-carbonitrile] as the compound, how does the inhibition at 100 µM read?
A: 31 to 95%

Q: With `COc1ccc(C(C)NC23CC4CC(CC(C4)C2)C3)cc1` (stereo not shown) [Example 11a, N-(1-(4-methoxyphenyl)ethyl)adamantan-1-amine] as the compound, how does the inhibition at 100 µM read?
A: 31 to 95%

Same assay, conditions: Table 1; 100 uM; Xenopus oocytes, pH 5.5, -20 mV; read-out: S31 OOcyte Inhibition at 100 uM (%)

Q: With `c1cc2c(cc1CNC13CC4CC(CC(C4)C1)C3)OCO2` [Example 49] as the compound, how does the inhibition at 100 µM read?
A: 31 to 95%

Q: `COc1cc(O)ccc1CNC12CC3CC(CC(C3)C1)C2` [Example 56, 4-(Adamantan-1-ylaminomethyl)-3-methoxy-phenol] was tested. Which inhibition at 100 µM did it give?
A: 0 to 30%

Q: `COc1cc(CNC23CC4CC(CC(C4)C2)C3)ccc1O` [Example 50, 4-(Adamantan-1-ylaminomethyl)-2-methoxy-phenol] was tested. Which inhibition at 100 µM did it give?
A: 31 to 95%

Q: How did the inhibition at 100 µM turn out when `CN(CCC#N)c1ccc(CNC23CC4CC(CC(C4)C2)C3)cc1` [Example 38, 3-((4-((Adamantan-1-ylamino)methyl)phenyl)(methyl)amino)propanenitrile] was run?
A: 0 to 30%

Q: With `OCc1ccc(CNC23CC4CC(CC(C4)C2)C3)o1` [Example 77, [5-(Adamantan-1-ylaminomethyl)-furan-2-yl]methanol] as the compound, how does the inhibition at 100 µM read?
A: 0 to 30%

Q: `c1coc(COc2ccc(CNC34CC5CC(CC(C5)C3)C4)cc2)c1` [Example 21, Adamantan-1-yl-[4-(furan-2-ylmethoxy)-benzyl]-amine] was tested. Which inhibition at 100 µM did it give?
A: 31 to 95%

Q: For `O=[N+]([O-])c1cc(CNC23CC4CC(CC(C4)C2)C3)ccc1O` [Example 52, 4-(Adamantan-1-ylaminomethyl)-2-nitro-phenol], which inhibition at 100 µM is on record?
A: 31 to 95%

Same assay, conditions: Table 3; 100 uM; Xenopus oocytes, pH 5.5, -20 mV; read-out: S31 OOcyte Inhibition at 100 uM (%)

Q: With `c1nc(N2CCCC2)ncc1CNC12CC3CC(CC(C3)C1)C2` [Example 54b, N-((2-(pyrrolidin-1-yl)pyrimidin-5-yl)methyl)adamantan-1-amine] as the compound, how does the inhibition at 100 µM read?
A: 0 to 30%

Q: Which inhibition at 100 µM does the source give for `COc1ccccc1-c1ccc(CNC23CC4CC(CC(C4)C2)C3)nc1` [Example 69b, Adamantan-1-yl-[5-(2-methoxy-phenyl)-pyridin-2-ylmethyl]-amine] here?
A: 0 to 30%

Q: `Cc1ncc(CNC23CC4CC(CC(C4)C2)C3)s1` [Example 16b, N-((2-methylthiazol-5-yl)methyl)adamantan-1-amine] was tested. Which inhibition at 100 µM did it give?
A: 0 to 30%

Q: How did the inhibition at 100 µM turn out when `CSc1ccccc1-c1cnc(CNC23CC4CC(CC(C4)C2)C3)s1` [Example 76b, Adamantan-1-yl-[5-(2-methylsulfanyl-phenyl)-thiazol-2-ylmethyl]-amine] was run?
A: 0 to 30%

Q: For `COc1ccc2nc(CNC34CC5CC(CC(C5)C3)C4)[nH]c2c1` [Example 79b, Adamantan-1-yl-(6-methoxy-1H-benzoimidazol-2-ylmethyl)-amine], which inhibition at 100 µM is on record?
A: 0 to 30%

Q: With `CSc1ccccc1-c1ccc(CNC23CC4CC(CC(C4)C2)C3)nc1` [Example 67b, Adamantan-1-yl-[5-(2-methylsulfanyl-phenyl)-pyridin-2-ylmethyl]-amine] as the compound, how does the inhibition at 100 µM read?
A: 31 to 95%

Q: With `CSc1ccc(-c2cc(CNCC34CC5CC(CC(C5)C3)C4)no2)cc1` [Example 40b, 1-((3r,5r,7r)-adamantan-1-yl)-N-((5-(4-(methylthio)phenyl)isoxazol-3-yl)methyl)methanamine] as the compound, how does the inhibition at 100 µM read?
A: 0 to 30%

Q: With `Oc1cc(-c2ccco2)ccc1CNC12CC3CC(CC(C3)C1)C2` [Example 7b, 2-((-Adamantan-1-ylamino)methyl)-5-(furan-2-yl)phenol] as the compound, how does the inhibition at 100 µM read?
A: 0 to 30%

Same assay, conditions: pH 5.5, read-out: S31 OOcyte Inhibition at 100 uM (%)

Q: How did the inhibition at 100 µM turn out when `Oc1ccccc1CNC12CC3CC(CC(C3)C1)C2` [Example 28, 2-(Adamantan-1-ylaminomethyl)-phenol] was run?
A: 31 to 95%
